Measured values taken from patent EP0403172A2, “Purified enzyme and process therefor” (OKLAHOMA STATE UNIVERSITY, priority 1989, dated 1990).
Like-named read-outs stand apart in the source and are kept apart here.

Tests used:
Assay type in all cases: biochemical
[1] = target: T1, isopenicillin N epimerase (Streptomyces clavuligerus, UniProt P18549); test: Epimerase activity assay (product formation from isopenicillin N / penicillin N, quantitated by HPLC after o-phthaldialdehyde derivatization)
T1 construct: Approximately 250 g of frozen whole cells of S. clavuligerus were thawed and homogenated; made in house; host or cells: Streptomyces clavuligerus NRRL 18491 (native producer; the endogenous enzyme was purified from cell-free extract, not made recombinantly)
T1 sequence (P18549 1-398): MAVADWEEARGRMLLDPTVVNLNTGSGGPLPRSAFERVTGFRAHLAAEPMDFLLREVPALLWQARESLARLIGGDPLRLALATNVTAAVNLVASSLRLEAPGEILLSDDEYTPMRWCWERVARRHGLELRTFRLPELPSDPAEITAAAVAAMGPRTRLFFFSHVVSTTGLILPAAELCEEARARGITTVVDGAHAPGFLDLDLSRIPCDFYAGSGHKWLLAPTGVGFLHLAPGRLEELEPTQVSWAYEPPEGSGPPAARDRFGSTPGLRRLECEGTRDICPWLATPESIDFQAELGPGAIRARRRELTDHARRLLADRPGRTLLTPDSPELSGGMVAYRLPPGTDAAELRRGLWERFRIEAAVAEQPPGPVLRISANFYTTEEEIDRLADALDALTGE
Experimental: The epimerase activity was determined by the product formation using isopenicillin N and penicillin N as substrates. Formation of isopenicillin N and penicillin N was quantitated by HPLC. […] The reaction mixture was incubated at 37°C for 20 min. The reaction was terminated by placing the reaction vessel in boiling water for 10 min, immediately cooling the reaction mixture with ice, and then filtering the cold mixture through a 0.45 µm filter.
The derivatives were then analyzed by HPLC. The assay samples were prepared for HPLC as follows. The assay filtrate, obtained as described above, 20 µl was mixed with 5 µl of a derivatizing reagent consisting of 4 mg of o-phthaldialdehyde dissolved in 300 µl of methanol, 250 µl of 0.4 M sodium borate, pH 9.4, 390 µl of water and 60 µl of 1 M N-acetyl-L-cysteine, adjusted to pH 5-6 with sodium hydroxide. After a 2 min reaction time, 200 µl of 50 mM sodium acetate, pH 5.0, were added to the mixture and 50 µl aliquots were used for HPLC analysis.

[2] = target: T1, isopenicillin N epimerase; test: Fluorescamine titration of hydroxylamine-treated epimerase with activity assay of aliquots; details: fluorescamine/epimerase ratio of 35 mole/mole
Experimental: Fluorescamine reacts with primary amino groups, such as the α-amino group of the N-terminal amino residue and the ε-amino groups of lysine in the enzyme to form fluorescent products with maximum excitation and emission wavelength of 390 nm and 475 nm, respectively.
The emission fluorescence of fluorescamine treated epimerase shown in FIG. 2 of the drawings was obtained as follows. The epimerase (0.5 mg/ml) was incubated in 10 mM potassium phosphate, pH 7.0, containing 10 mM hydroxylamine at 0°C for 60 min. After removal of hydroxylamine by gel filtration, the treated enzyme (0.16 mg/ml) in 10 mM potassium phosphate, pH 7.0, was titrated with the indicated amounts of fluorescamine (50 mM) dissolved in dry acetone at 25°C. The sample was excited at 390 nm and the emission fluorescence was followed at 475 nm. […] Simultaneously, aliquots of the enzyme solution were withdrawn and activity for isopenicillin N was assayed. The assay results (% activity) are shown on the curve labeled "●" in FIG. 2.

[3] = target: T1, isopenicillin N epimerase; test: Conversion to apoenzyme with hydroxylamine / reduction with sodium borohydride, then activity
Experimental: PLP bound to the epimerase was measured by the known phenylhydrazine method and an average value of one mole of PLP per 47,000 g of enzyme was obtained. The haloenzyme was converted to the apoenzyme by incubation at 0°C for 60 min with 10 mM potassium phosphate, pH 7.0, containing 10 mM hydroxylamine followed by gel filtration. The hydroxylamine treated epimerase expressed no activity in the absence of exogenous PLP and the absorption maximum at 420 nm disappeared (FIG. 1, curve 2). The epimerase activity was restored by the addition of PLP to the apoenzyme. The apparent Michelis constant for PLP was determined to be 2.4 µM.
The absorption spectra shown in FIG. 1 of the drawings were obtained as follows. The epimerase (haloenzyme), curve 1, was treated with 10 mM hydroxylamine (apoenzyme), curve 2, or was reduced with 1 mM sodium borohydride, curve 3. After removal of hydroxylamine or sodium borohydride by gel filtration, absorption spectra were run in 10 mM potassium phosphate, pH 7.0, at the enzyme concentration of 0.57 mg/ml with an Aminco DW-2000 spectrophotometer.

[4] = compound as epimerase substrate at 1.4 mM, Isopenicillin N = 100, read-out: Relative Activity (%)
[5] = compound as epimerase substrate at 1.4 mM, Isopenicillin N = 100

For `CC(C)(COP(=O)(O)OP(=O)(O)OC[C@H]1O[C@@H](n2cnc3c(N)ncnc32)[C@H](O)[C@@H]1OP(=O)(O)O)[C@@H](O)C(=O)NCCC(=O)NCCS` [CoA, Coenzyme A], the Activity ([1]; Table 4, compound at 1 mM) was 202 µmol/min/mL.
`CC(=O)OCC1=C(C(=O)O)N2C(=O)[C@@H](NC(=O)CCC[C@@H](N)C(=O)O)[C@H]2SC1` [Ceph C, cephalosporin C] showed an Activity [1, 4] of 0%.
With `NNC(=O)c1ccncc1` [Isoniazid] the inhibition at 1000 µM ([1]; compound at 1.0 mM) was 23%.
`Nc1ncnc2c1ncn2[C@@H]1O[C@H](COP(=O)(O)OP(=O)(O)OP(=O)(O)O)[C@@H](O)[C@H]1O` [ATP, Adenosine Triphosphate] gave an Activity ([1]; Table 4, compound at 1 mM) of 208 µmol/min/mL.
Molecule `NC(=O)C1=CN([C@@H]2O[C@H](COP(=O)(O)OP(=O)(O)OC[C@H]3O[C@@H](n4cnc5c(N)ncnc54)[C@H](O)[C@@H]3O)[C@@H](O)[C@H]2O)C=CC1` [NADH, Reduced Nicotinamide Adenine Dinucleotide] has an Activity ([1]; Table 4, compound at 1 mM) of 184 µmol/min/mL.
In the case of `O=C1OC2(OC=C(c3ccccc3)C2=O)c2ccccc21` (stereo not shown) [fluorescamine], the epimerase activity remaining [2] is reported as “about 80%”.
With `O=S(=O)(F)Cc1ccccc1` [phenylmethylsulfonyl fluoride] the “effect on activity of epimerase” value [1] was “do not affect”.
For `O=CC(=O)c1ccccc1` [Phenylglyoxal], the inhibition at 1000 µM ([1]; compound at 1.0 mM) was 33%.
`N[C@@H](CCCC(=O)O)C(=O)O` [L-Amino adipic acid] showed an Activity [1, 4] of 0%.
In the case of `CC1=CSC2C(NC(=O)CCCC(N)C(=O)O)C(=O)N2C1C(=O)O` (stereo not shown) [IsoDAOC, Isodeacetoxycephalosporin C (2-cephem)], the “Relative Activity (%)” value [1, 5] is reported as 0%.
In the case of `CC(C)[C@@H](NC(=O)[C@H](CS)NC(=O)CCC[C@H](N)C(=O)O)C(=O)O` [ACV, δ-(L-α-aminoadipoyl)-L-cysteinyl-D-valine], the Activity [1, 4] is reported as 0%.
Molecule `CCN1C(=O)C=CC1=O` [N-Ethylmaleimide] has an inhibition at 100 µM ([1]; compound at 0.1 mM) of 26% and an inhibition at 1000 µM ([1]; compound at 1.0 mM) of 45%.
Work on `CC1(C)S[C@@H]2[C@H](NC(=O)CCC[C@H](N)C(=O)O)C(=O)N2[C@H]1C(=O)O` [Isopenicillin N] yielded an Activity [1, 4] of 100%.
`Cc1cc2nc3c(=O)[nH]c(=O)nc-3n(C[C@H](O)[C@H](O)[C@H](O)COP(=O)(O)OP(=O)(O)OC[C@H]3O[C@@H](n4cnc5c(N)ncnc54)[C@H](O)[C@@H]3O)c2cc1C` [FAD, Flavin-Adenine Dinucleotide] gave an Activity ([1]; Table 4, compound at 0.5 mM) of 42 µmol/min/mL and an inhibition at 500 µM ([1]; compound at 0.5 mM) of 80%.
In the case of `NO` [Hydroxylamine], the “Inhibition (%)” value ([1]; compound at 0.1 mM) is reported as 80%, the “Inhibition (%)” value ([1]; compound at 1.0 mM) is reported as 95% and the “epimerase activity after treatment” value ([3]; 10 mM hydroxylamine, 0°C, 60 min, gel filtration, absence of exogenous PLP) is reported as “no activity”.
With `Cc1ncc(COP(=O)(O)O)c(C=O)c1O` [PLP, pyridoxal-5′-phosphate] the “apparent Michelis constant for PLP” value ([1]; PLP added to the apoenzyme (hydroxylamine treated)) was 2.4 µM.
Molecule `CC(=O)N[C@@H](CS)C(=O)O` [N-acetyl-L-cysteine] has an Activity ([1]; sulfhydryl compound at 0.2 mM) of 224 µmol/min/mL and an Activity ([1]; sulfhydryl compound at 0.5 mM) of 190 µmol/min/mL.
`N[C@@H]1CONC1=O` [D-Cycloserine] was tested, and the inhibition at 1000 µM ([1]; compound at 1.0 mM) was 23%.
In the case of `CC(C)NNC(=O)c1ccncc1` [Iproniazid], the inhibition at 1000 µM ([1]; compound at 1.0 mM) is reported as 25%.
`O=S(=O)([O-])[O-].[Fe+2]` [FeSO4] gave an Activity ([1]; Table 4, compound at 0.1 mM) of 150 µmol/min/mL.
`CC1(C)S[C@@H]2[C@H](NC(=O)CCC[C@@H](N)C(=O)O)C(=O)N2[C@H]1C(=O)O` [Penicillin N] was tested, and the Activity [1, 4] was 204%.
With `[BH4-].[Na+]` [sodium borohydride] the “catalytic activity after reduction” value ([3]; reduction of haloenzyme with sodium borohydride (1 mM), PLP did not restore activity) was “destroyed catalytic activity”.
For `OCCS` [β-mercaptoethanol], the “effect on activity of epimerase” value [1] was “partially stimulated”, the Activity ([1]; sulfhydryl compound at 0.2 mM) was 275 µmol/min/mL and the Activity ([1]; sulfhydryl compound at 0.5 mM) was 281 µmol/min/mL.
With `N[C@H](CCCC(=O)N[C@@H]1C(=O)N2C(C(=O)O)=C(CO)CS[C@H]12)C(=O)O` [DAC, Deacetylcephalosporin C] the “Relative Activity (%)” value [1, 5] was 0%.
`N[C@H](CCCC(=O)O)C(=O)O` [D-Amino adipic acid] was tested, and the Activity [1, 4] was 0%.
With `O[C@H](CS)[C@H](O)CS` (racemic) [Dithiothreitol] the “effect on activity of epimerase” value [1] was “partially stimulated”, the Activity ([1]; sulfhydryl compound at 0.2 mM) was 290 µmol/min/mL and the Activity ([1]; sulfhydryl compound at 0.5 mM) was 300 µmol/min/mL.
`NC(=O)CI` [Iodoacetamide] showed an inhibition at 1000 µM ([1]; compound at 1.0 mM) of 28%.
`CC1=C(C(=O)O)N2C(=O)[C@@H](NC(=O)CCC[C@@H](N)C(=O)O)[C@H]2SC1` [DAOC, Deacetoxycephalosporin C (3-cephem)] showed an Activity [1, 4] of under 1%.
